The record followed here is ChEMBL document CHEMBL5329169, “Recent developments in membrane targeting antifungal agents to mitigate antifungal resistance” (2023).

≈ marks a conversion by molar mass, not a printed value.

Type in all cases: functional
The test system of experiment [1] is Candida albicans. In words: Antifungal activity against Candida albicans ATCC 10231 assessed as fungal growth inhibition measured after 24 hrs by two fold serial dilution technique.
The subject of experiment [2] is Candida albicans. In words: Antifungal activity against Candida albicans SC5314 assessed as fungal growth inhibition measured after 20 hrs by microplate assay.
A further experiment deals with Cryptococcus neoformans. In words: Antifungal activity against Cryptococcus neoformans H99 assessed as fungal growth inhibition measured after 20 hrs by microplate assay.
Experiment [3] deals with Candida albicans. In words: Antifungal activity against Candida albicans assessed as fungal growth inhibition measured after 48 hrs by broth microdilution assay. (Dilution methods test growth across graded concentrations, often in twofold steps.)
Experiment [4] deals with Candida albicans. In words: Antifungal activity against Candida albicans SC5314 assessed as log reduction in fungal growth at 2x MIC measured after 6 hrs.

For the compound `CC[n+]1ccn(CCC[C@@H](C)[C@H]2CC[C@H]3[C@@H]4CC[C@@H]5C[C@H](O)CC[C@]5(C)[C@H]4CC[C@]23C)c1.[I-]`, the MIC80 in the experiment with Candida albicans [1] was 0.5 µg/mL.

For the compound `CCCCCCCCCCN(Cc1cccc2ccccc12)C(=O)C(N)CCCCN` (stereo unspecified), the MIC80 was determined as 12.5 µg/mL (≈ 29.4 µM) in the experiment on Candida albicans [2] and 3.1 µg/mL (≈ 7.28 µM) in the experiment on Cryptococcus neoformans.

`C[C@H](CCCn1cc[n+](C)c1)[C@H]1CC[C@H]2[C@@H]3CC[C@@H]4C[C@H](O)CC[C@]4(C)[C@H]3CC[C@]12C.[I-]`: in the experiment on Candida albicans [1], the MIC80 was 0.25 µg/mL.

Regarding `C[C@H](CCC(=O)O)[C@H]1CC[C@H]2[C@@H]3CC[C@@H]4C[C@H](O)CC[C@]4(C)[C@H]3CC[C@]12C` [LITHOCHOLIC ACID], the MIC80 with Candida albicans [3] was 3.12 µg/mL (≈ 8.29 µM).

For the compound H-GIWKKWIKKWLKKLKNLF-NH2, in the experiment on Candida albicans [4], the Activity amounted to 5.55 log reduction.

Usually MIC80 stands for the lowest concentration that inhibits either 80% of growth or 80% of the strains tested, depending on the study.
